Data set [1] deals with T1, human glucagon receptor (Glucagon-R) (Homo sapiens, UniProt P47871).
T1 construct: expressed in transfected cells
In words: Glucagon receptor efficacy assay (cAMP AlphaScreen, CHO cells). The conditions noted are these: Table 1A; CHO cells expressing human Glucagon-R, cAMP; read-out: EC50 hGCGR CHO-K1. It counts as cell-based. A digest of the protocol:
(§1)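 Stably transfected CHO clones expressing human GLP-1R or glucagon receptor were treated with increasing peptide concentrations for 15 min at room temperature in KRBH containing 0.1 mM IBMX. After lysis, cAMP was quantified by AlphaScreen; EC50 and efficacy relative to GLP-1 or glucagon reference came from curve fitting.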
On the technique in general: In Alpha technology, singlet oxygen from a donor bead excites a nearby acceptor bead.

Data set [2] concerns the target T2, human glucagon-like peptide 1 receptor (GLP-1R) (Homo sapiens, UniProt P43220).
T2 construct: expressed in transfected cells
In words: GLP-1 receptor efficacy assay (cAMP AlphaScreen, CHO cells). It counts as cell-based. As to conditions: Table 1A. Summed up: as §1

Data set [3] concerns the target T3, endogenous GLP-1 receptors (Mus musculus, UniProt O35659).
T3 construct: Agonistic activity of the test compounds on endogenous GLP-1 receptors; endogenous in cells
T3 sequence (O35659 22-463): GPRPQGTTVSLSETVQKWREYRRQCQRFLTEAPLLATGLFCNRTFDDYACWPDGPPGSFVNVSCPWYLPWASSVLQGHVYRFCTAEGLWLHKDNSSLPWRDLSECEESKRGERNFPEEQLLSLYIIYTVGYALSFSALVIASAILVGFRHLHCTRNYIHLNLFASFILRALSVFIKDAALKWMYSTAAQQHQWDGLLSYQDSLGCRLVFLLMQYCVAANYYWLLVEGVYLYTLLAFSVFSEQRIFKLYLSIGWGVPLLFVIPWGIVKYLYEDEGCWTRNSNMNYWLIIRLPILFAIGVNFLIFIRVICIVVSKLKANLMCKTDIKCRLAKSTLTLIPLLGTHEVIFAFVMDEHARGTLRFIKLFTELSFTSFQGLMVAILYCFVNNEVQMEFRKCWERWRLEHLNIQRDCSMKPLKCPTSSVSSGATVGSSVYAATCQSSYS
In words: Agonistic activity on endogenous GLP-1 receptor (cAMP, murine insulinoma cell line). The data set is classed as cell-based. As to conditions: intracellular cAMP, 15 minutes at 26° C.; read-out: EC50 GLP-1R (murine insulinoma cells). A digest of the protocol: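 Murine insulinoma cells were exposed 15 min at 26° C in KRBH with 0.1% DMSO to compound or GLP-1 ([…]), then cAMP was measured by AlphaScreen against a standard curve, in quadruplicate. pEC50 came from curve fits; % CTL was normalised to the maximal GLP-1 cAMP response.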

A short description of data set [4]: Pharmacokinetic parameters after subcutaneous and intravenous administration to mice. It counts as in vivo. The conditions noted are these: male, mouse, plasma, 20 nmol/kg, C57Bl/6J mice; for half-life: read-out: Terminal half life (converted). The method, then:
Pharmacokinetic parameters of the test compounds were determined after subcutaneous and intravenous administration to C57Bl/6J mice.
8 week old male C57Bl/6J mice were obtained from Taconic (Denmark) weighing approximately 20-25 g at time of arrival at the test facility. The mice were caged in European standard cages type III with light cycle of 12-hour dark and 12-hour light (lights on 06.00). Both diet, Altromin 1324 (Altromin, Germany), and water was administered ad libitum during the whole experimental period. The 8-11 week animals were imported to the laboratory at least 7 days before the start up of the experimental procedure in order to assure proper acclimatization. After sampling the mice were euthanized by cervical dislocation.
The compounds were first dissolved in 0.096% aqueous ammonia to a nominal concentration of 2 mg/ml, and then diluted to the desired dosing strength (4 μM) in sterile PBS containing 25 mM phosphate buffer, pH 7.4. Subcutaneous and intravenous injections corresponding to 20 nmol/kg were given. The GLP-1-glucagon dual agonists were administered for subcutaneous dosing in the neck region and via a lateral tail vein for intravenous dosing.
Blood samples (250 μl) were collected from the periorbital plexus at time points 0.5, 2, 4, 6, 12, 16, 20, 24 h for subcutaneous and 10, 30 min, 3, 6, 12, 18, 24 h for intravenous administration into ice-chilled K3EDTA tubes and centrifuged for 5 minutes at 4° C. within 20 minutes of sampling. Plasma (>100 μl) was separated to ice-chilled Micronic tubes, immediately frozen, and kept at −70° C. until analysed for plasma concentration for the respective GLP-1-glucagon compound using LC-MS/MS. Individual plasma concentration-time profiles were analysed by a non-compartmental approach in WinNonLin v6.3 (Pharsight inc, Mountain View, Calif., USA), and the resulting pharmacokinetic parameters determined.

Data set [5] can be described thus: Oral glucose tolerance test (OGTT). It counts as in vivo, C57BL/6J mice. As to conditions: blood glucose AUC 0-120 min, 10 nmol/kg s.c. 4 h before oral glucose 2 g/kg. The method, then:
Male C57BL/6J mice were fasted for 10 h before they received an oral glucose bolus of 2 g/kg body weight. Peptides were dissolved in saline buffered with 25 mM phosphate and administered at a dose of 10 nmol/kg body weight by subcutaneous injection 4 h before the glucose bolus. Control animals received a vehicle injection only. Group size was 7 animals per group. A pre-dose and a pre-glucose (0 min) blood sample were obtained by tail bleeding and blood glucose was measured with a glucometer. Additional samples of tail blood for measuring blood glucose were obtained 15 min, 30 min, 60 min, 90 min and 120 min after the glucose challenge. […] Calculation of AUC was done by the trapezoidal rule without baseline correction. The data are presented as mean±S.E.M. Statistical comparisons were conducted by one-way ANOVA followed by Tukey's post test. Vehicle alone was used as a control.

Structures are written as SMILES. Read-outs that look alike come from different tables or passages of the source. *1 amine or outer side, *2 acyl side, *3 side chain or, on linkers, in order; H or OH if unused. Where a SMILES comes first, the peptide text is derived from it. Side-chain parts run from the residue outwards. [ ]: non-standard residue; d: D form. The star is where a group is joined. γGlu = O=C(O)[C@H](CCC(=O)[*:2])N[*:1]; Palmitoyl = CCCCCCCCCCCCCCCC(=O)*; Aib = CC(C)(N)C(=O)O

This note sets out measurements from patent US10253081B2, “Glucagon analogues” (Zealand Pharma A/S, priority 2012, dated 2019).

T2 sequence (P43220 24-463): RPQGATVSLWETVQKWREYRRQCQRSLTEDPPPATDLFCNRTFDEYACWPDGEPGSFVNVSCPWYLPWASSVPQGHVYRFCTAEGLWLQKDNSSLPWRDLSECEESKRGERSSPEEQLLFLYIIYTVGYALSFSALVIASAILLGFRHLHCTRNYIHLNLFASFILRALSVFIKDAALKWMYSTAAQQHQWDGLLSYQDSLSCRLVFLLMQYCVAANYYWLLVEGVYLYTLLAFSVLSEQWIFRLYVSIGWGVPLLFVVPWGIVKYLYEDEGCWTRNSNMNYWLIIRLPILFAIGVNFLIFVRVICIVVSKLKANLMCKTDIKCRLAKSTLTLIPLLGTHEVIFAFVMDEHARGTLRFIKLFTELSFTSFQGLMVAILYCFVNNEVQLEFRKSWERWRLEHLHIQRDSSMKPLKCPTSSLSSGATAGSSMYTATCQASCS
T1 sequence (P47871 26-477): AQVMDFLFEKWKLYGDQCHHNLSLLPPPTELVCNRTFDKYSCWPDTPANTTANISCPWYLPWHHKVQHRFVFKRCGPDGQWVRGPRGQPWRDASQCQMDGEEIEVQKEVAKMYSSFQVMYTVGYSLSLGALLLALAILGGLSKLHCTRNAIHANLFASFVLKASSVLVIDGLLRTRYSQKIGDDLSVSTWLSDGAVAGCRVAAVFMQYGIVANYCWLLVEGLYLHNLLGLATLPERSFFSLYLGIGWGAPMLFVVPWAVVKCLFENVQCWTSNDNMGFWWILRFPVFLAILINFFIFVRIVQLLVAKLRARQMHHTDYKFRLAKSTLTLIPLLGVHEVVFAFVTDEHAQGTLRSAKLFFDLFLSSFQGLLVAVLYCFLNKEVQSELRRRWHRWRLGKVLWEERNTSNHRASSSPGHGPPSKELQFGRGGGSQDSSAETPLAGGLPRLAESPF

As for `CCCCCCCCCCCCCCCC(=O)N[C@@H](CCC(=O)NCCCC[C@H](NC(=O)[C@H](CCC(=O)O)NC(=O)[C@H](CC(=O)O)NC(=O)[C@H](CC(C)C)NC(=O)[C@H](Cc1ccc(O)cc1)NC(=O)[C@H](CCCCN)NC(=O)[C@H](CO)NC(=O)[C@H](Cc1ccc(O)cc1)NC(=O)[C@H](CC(=O)O)NC(=O)[C@H](CO)NC(=O)[C@@H](NC(=O)[C@H](Cc1ccccc1)NC(=O)[C@@H](NC(=O)CNC(=O)[C@H](CCC(N)=O)NC(=O)C(C)(C)NC(=O)[C@@H](N)Cc1c[nH]cn1)[C@@H](C)O)[C@@H](C)O)C(=O)N[C@@H](CCCNC(=N)N)C(=O)N[C@@H](C)C(=O)N[C@@H](CCCCN)C(=O)N[C@@H](CC(=O)O)C(=O)N[C@@H](Cc1ccccc1)C(=O)N[C@H](C(=O)N[C@@H](CCC(=O)O)C(=O)N[C@@H](Cc1c[nH]c2ccccc12)C(=O)N[C@@H](CC(C)C)C(=O)N[C@@H](CC(C)C)C(=O)N[C@@H](CO)C(=O)O)[C@@H](C)CC)C(=O)O` [Compound 11, H-H-Aib-QGTFTSDYSKYLDE-K(Hexadecanoyl-isoGlu)-RAKDFIEWLLS-OH] (H-H[Aib]QGTFTSDYSKYLDEK([γGlu-Palmitoyl])RAKDFIEWLLS-OH), in data set [1], the concentration giving a half-maximal response (EC50) (commonly the concentration that produces a half-maximal response) is 610 pM. Further, in data set [2] (CHO cells expressing human GLP-1-R, cAMP, read-out: EC50 hGLP-1R CHO-K1), the EC50 was 640 pM. In data set [2] (EC50 [GLP-1R]/EC50 [Glucagon-R]), the “Ratio GLP-1/Glucagon” value is on record as 1.05. Further, the EC50 in data set [3] came to 1010 pM. In addition, in data set [4] (IV), the clearance was 0.157 mL/min/kg and the half-life (usually how long it takes for the measured level to halve) was 3.9 h. Moreover, in data set [4] (SC), the Tmax (as a rule, the time from dosing to the highest level) amounted to 4 h; the bioavailability – broadly, the share of a dose that reaches the circulation, judged against a reference dose that is usually intravenous – turned out to be 64%; the half-life was 5 h. Also, the MRT in data set [4] (SC, read-out: Mean Residence Time) stood at 12.5 h. Moreover, in data set [5], the “AUC (% Ctrl)” value was found to be 61 % Ctrl.
